Test results as given in US11052086B2, “2-anilinopyrimidine derivatives as therapeutic agents for treatment of brain cancers” (Beta Pharma, Inc., priority 2016, dated 2021).
Where two headings read alike, the source gives them in different places.

What was measured:
NCI-H1975-Luc cells = assay: Intracranially implanted NCI-H1975-Luc tumor efficacy study in mice (BLI and survival); type: in vivo
Description: N-(2-(2-(Dimethylamino)ethoxy)-4-methoxy-5-((4-(1-methyl-1H-indol-3-yl)pyrimidin-2-yl)amino)phenyl)acrylamide methanesulfonate (1⋅Ms; C27H30N6O3.1.06 CH3SO3H. MW=486.58, FW=588.45, purity=100%) was formulated in a vehicle of 1% polysorbate 80 in water. The complete vehicle was added to the pre-weighed compound to achieve a 5 mg/mL stock solution, suitable for treatment of the 50 mg/kg dose level. The mixture was vortexed for approximately one minute resulting in a light yellow solution with a pH value of 7. The dosing solution was prepared fresh daily.
Female Envigo Nude mice (Hsd:Athymic Nude-Foxn1^nu) were used. They were 6-7 weeks old on Day 1 of the experiment. The animals were fed irradiated Harlan 2918.15 Rodent Diet and water ad libitum. Animals were housed in static cages with Bed-O'Cobs™ bedding inside Biobubble® Clean Rooms that provide H. E. P. A filtered air into the bubble environment at 100 complete air changes per hour. All treatments, body weight determinations, and tumor measurements were carried out in the bubble environment. The environment was controlled to a temperature range of 70±2 OF and a humidity range of 30-70%.
NCI-H1975-Luc cells were obtained from Clovis. They were grown in RPMI 1640 medium which was modified with 1 mM Na pyruvate+2 mM L-glutamine+10 mM HEPES+2.5 g/L glucose+5 ug/mL blasticidin and supplemented with 10% non-heat-inactivated Fetal Bovine Serum (FBS) and 1% 100× Penicillin/Streptomycin/L-Glutamine (PSG). The growth environment was maintained in an incubator with a 5% CO2 atmosphere at 37° C. When expansion was complete, the cells (passage 4) were trypsinized using 0.25% trypsin-EDTA solution. Following cell detachment, the trypsin was inactivated by dilution with complete growth medium and any clumps of cells were separated by pipetting. The cells were centrifuged at 200 ref for 8 minutes at 4° C. the supernatant was aspirated, and the pellet was re-suspended in cold Dulbecco's Phosphate Buffered Saline (DPBS) by pipetting. An aliquot of the homogeneous cell suspension was diluted in a trypan blue solution and counted using a Luna automated cell counter to determine a pre-implantation cell viability. The cell suspension was centrifuged at 200 ref for 8 minutes at 4° C. The supernatant was aspirated and the cell pellet was re-suspended in cold serum-free medium to generate a final concentration of 1.00E+08 trypan-excluding cells/mL. The cell suspension was maintained on wet ice during implantation. Following implantation, an aliquot of the remaining cells was diluted with a trypan blue solution and counted to determine the post-implantation cell viability.
Test mice were implanted intracranially on Day 0 with 1.00E+06 cells per 10 μL as per the protocol (Appendix 1). For aseptic surgical implantation, mice were injected with 0.2 mg/kg buprenorphine and anesthetized using 2% isoflurane in air. The mice were then secured in a stereotaxic frame (ASI instruments, Inc.) using non-rupture ear bars. Ocular ointment was applied to the eyes of the mice to prevent drying during surgery. A re-circulating 37° C. water heated pad was used to maintain the animal's body temperature during the implantation procedure. Once in the stereotaxic frame, the cranium was swabbed with alternating chlorhexidine solution and 70% ethanol-saturated swabs to disinfect the skin surface and prepare for the incision. A 1 cm longitudinal incision was made centrally over bregma of the cranium using a #15 BD scalpel blade. The incision was retracted using small, serrated serrefines. The thin layer of connective tissue covering the surface of the skull was removed using dry cotton swabs under light pressure. Bleeding vessels were cauterized to prevent blood loss. A 0.9 mm drill bit was then centered over bregma, moved 2 mm right lateral, 1 mm anterior to the coronal suture and lowered to score the surface of the skull using the stereotaxic electrode manipulator arm. […]

[1] = Pharmacokinetics in male SD rats dosed PO (plasma and brain); type: in vivo, rat; settings: male SD rats PO 5 mg/kg; for Cmax: 0.5% methylcellulose vehicle; for MRT inf: read-out: MRT0-inf; for MRT last: read-out: MRT0-last
[2] = test system: kinase domain of the T790M double mutant; assay: Inhibition of EGFR T790M double mutant kinase domain; type: biochemical; settings: in addition to the activating mutations
[3] = 50 mg/kg, PO, QD×14 (Days 5-18)

## C=CC(=O)Nc1cc(Nc2nccc(-c3cn(C)c4ccccc34)n2)c(OC)cc1OCCN(C)C [1⋅Ms, N-(2-(2-(Dimethylamino)ethoxy)-4-methoxy-5-((4-(1-methyl-1H-indol-3-yl)pyrimidin-2-yl)amino)phenyl)acrylamide methanesulfonate]
NCI-H1975-Luc cells; [3]
  increase in lifespan: 15 days
NCI-H1975-Luc cells; 50 mg/kg, PO, QD×14 (Days 5-18), median BLI signal treated/control ×100, P<0.05
  BLI derived Day 13 % T/C: 1%
NCI-H1975-Luc cells; 50 mg/kg, PO, QD×14 (Days 5-18), methanesulfonate
  % ILS (life-span increase vs. vehicle): 107%
NCI-H1975-Luc cells; 50 mg/kg, PO, QD×14 (Days 5-18), p<0.001
  median lifespan: 29.0 days
NCI-H1975-Luc cells; 50 mg/kg, PO, QD×14 in nude mice
  tolerability of treatment: well-tolerated
NCI-H1975-Luc cells; By Day 18, 50 mg/kg PO QD×14, CR = BLI below 2.0E+05 photons/sec
  animals with complete regressions: none
NCI-H1975-Luc cells; By Day 18, 50 mg/kg PO QD×14, PR = ≥50% decrease in tumor BLI signal
  animals with partial tumor regressions: 100%
[1]; Brain
  AUC0-inf: 5085 ng·h/g
  AUC0-last: 5047 ng·h/g
  AUCExtra: 0.746%
  AUMCExtra: 2.57%
  Tlast: 18.0 h
[1]; Plasma
  AUCExtra: 0.593%
  AUMCExtra: 2.42%
  Tlast: 18.0 h
[1]; rat, Brain (vs plasma), read-out: AUC Ratio
  Kp: 9.44
[1]; rat, Brain
  Tmax: 2 h
  half-life: 2.01 h
  Cmax: 606 ng/g
  MRT inf: 6.07 h
  MRT last: 5.95 h
[1]; rat, Plasma
  AUC(0-t): 535 ng·h/mL
  Tmax: 2 h
  half-life: 1.97 h
  Cmax: 96.3 ng/mL
  MRT inf: 5.1 h
  MRT last: 5.01 h
[1]; rat, Plasma, read-out: AUC0-inf
  AUC0-inf: 538 ng·h/mL

## C=CC(=O)Nc1cc(Nc2nccc(-c3cn(C)c4ccccc34)n2)c(OC)cc1OCCN(C)C [Compound 1]
NCI-H1975-Luc cells; [3]
  % ILS (life-span increase vs. vehicle): greater than 100%
[2]
  inhibition of the kinase domain of the T790M double mutant: effectively inhibits
